According to paper PMC9323911, “Comparative Metabolomics Study of the Impact of Articaine and Lidocaine on the Metabolism of SH-SY5Y Neuronal Cells” (Metabolites, 2022):
Where a name gives a salt, the structure may show the parent alone. Read-outs that look alike come from different tables or passages of the source.

Key:
[1] = system: SH-SY5Y human neuroblastoma cells; test: resazurin cell viability assay; format: cell-based; details: for IC50: Homo sapiens, SH-SY5Y, read-out: IC50 (cell viability)
Experimental: Undifferentiated SH-SY5Y human neuroblastoma cells (ATCC® CRL-2266) were cultured in DMEM:F12 medium supplemented with 10% FBS and 1% antibiotic (100 IU/mLof penicillin and 100 μg/mL of streptomycin sulfate). Cells were grown in 75 cm^2 bottles and incubated at 37 °C under a humidified atmosphere with 5% CO2 for 48 h, until reaching semiconfluency. All experiments were performed on cells between passages 4 to 8.
To assess cell viability, the resazurin test was used. This assay evaluates the ability of viable cells to reduce resazurin (blue color) to a fluorescent, pink-colored compound, resorufin. Briefly, the cells were plated in a 96-well plate 24 h before treatment, at a density of 4 × 10^4 cells/mL. […] Each LA was solubilized in complete DMEM:F12 medium. Subsequently, the medium was removed, the wells were washed with 5 mM PBS and the cells were incubated with 10% resazurin for 4 h. At the end of this period, the absorbance was measured at 570 nm (λ1) and at 600 nm (λ2) (Multiskan™ FC Microplate Photometer, Thermofisher). The experiment was performed in triplicate and the differences between the two wavelengths (λ1–λ2) were calculated. The results were expressed in % of cell viability in relation to control and analyzed in GraphPad Prism® 6.0.

[2] = system: SH-SY5Y cells; test: 1H NMR metabolic profiling of culture medium (consumption/excretion); format: cell-based, human; details: vs control
Experimental: (§1) Afterward, the medium was collected and the dishes washed with cold PBS, immediately before the solvent extraction procedure described below. Unexposed cells were used as controls. Each assay comprised duplicates of each condition and three independent assays were performed, giving a total of 6 replicates per condition.
(§2) The culture medium was collected from each plate (including cell-free medium incubated under the same conditions) in conical tubes and centrifuged at 1000× g for 10 min. Furthermore, 300 µL of the supernatant were collected for protein precipitation, as described by Kostidis et al.. Briefly, 600 µL of 100% methanol (v/v) at −80 °C were added to the collected supernatant ([…]). […] The supernatant was transferred to another tube and vacuum dried (SpeedVac, Eppendorf, Hamburg, Germany). For extracting cellular metabolites, a biphasic extraction protocol (methanol:chloroform:water; 1:1:0.7) was used as previously described. The resulting polar extracts were dried under vacuum in a Speedvac concentrator, and the lipophilic extracts were dried under a nitrogen flow. All extracts were stored at −80 °C prior to NMR analysis.
(§3) For NMR analysis, dried aqueous and lipid extracts were dissolved, respectively, in 600 μL of deuterated phosphate buffer (PBS 100 mM, pH 7.4) containing 0.1 mM 3-(trimethylsilyl) propionic acid (TSP-d4), and 600 μL of deuterated chloroform containing 0.03% tetramethylsilane (TMS). […] Two-dimensional NMR spectra, namely, ^1H-^1H TOCSY, J-resolved and ^1H-^13C HSQC spectra, were also recorded for selected samples to aid metabolite identification. Signal assignment was based on matching 1D and 2D spectral information to reference spectra available in Chenomx 9.0 (Edmonton, AB, Canada), BBIOREFCODE-2–0–0 (Bruker Biospin, Rheinstetten, Germany) and HMDB.
(§4) To provide a quantitative measurement of metabolic variations, spectral integration and total area normalization of selected signals (vide Supplementary Table S1) were carried out in Amix-Viewer 3.9.15 (Bruker Biospin, Rheinstetten, Germany). For each metabolite, the percentage of variation (or fold change) in exposed samples was calculated relative to respective controls, along with the effect size (ES) and statistical significance (p-value). The variations with larger magnitude (|ES| > 0.8) were expressed in a heatmap.

[3] = system: SH-SY5Y cells; test: 1H NMR metabolic profiling of cell aqueous extracts; format: cell-based, human
Experimental: as §1, §2, §3
Principal Component Analysis (PCA) and Partial Least Squares-Discriminant Analysis (PLS-DA) were applied and the results were visualized through factorial co-ordinates (‘scores’) and factorial contributions (‘loadings’) colored according to variable importance to the projection (VIP). For PLS-DA models, Q^2 and R^2 values, respectively reflecting predictive capability and explained variance, obtained from sevenfold internal cross validation, were used to assess the robustness of group discrimination.
as §4

## CCN(CC)CC(=O)Nc1c(C)cccc1C [LDC, lidocaine hydrochloride]
[1]; 24 h exposure
  IC10 (concentration reducing cell viability by 10%): 1.2 mM
[1]; 20 min
  IC50: 7.3 ± 0.3 mM
[1]; 1 h
  IC50: 7.4 ± 0.3 mM
[1]; 4 h
  IC50: 5.7 ± 0.2 mM
[1]; 24 h
  IC50: 3.6 mM
[1]
  IC50: ~7 mM
[2]; IC10, 24 h
  pyruvate consumption: increased significantly
[2]; IC50, 24 h
  pyruvate consumption: no difference to controls
[3]; IC10, 24 h, aqueous extract
  2-Ketovaline, variation in relation to control: 0.0%
  2-Oxoisoleucine, variation in relation to control: 0.0%
  ATP + ADP, variation in relation to control: -10.4%
  Alanine, variation in relation to control: 0.0%
  Asparagine, variation in relation to control: -18.9%
  Aspartate, variation in relation to control: -12.9%
  Creatine, variation in relation to control: 24.9%
  Cystathionine, variation in relation to control: 12.1%
  Formate, variation in relation to control: 17.0%
  Glutamate, variation in relation to control: -16.3%
  Glutamine, variation in relation to control: -22.0%
  Glycerophosphocholine, variation in relation to control: -11.7%
  Glycine, variation in relation to control: 16.6%
  Histidine, variation in relation to control: 11.8%
  Isobutyrate, variation in relation to control: -14.4%
  Isoleucine, variation in relation to control: 18.2%
  Lactate, variation in relation to control: 0.0%
  Leucine, variation in relation to control: 33.4%
  NAD+, variation in relation to control: 0.0%
  Panthothenic, variation in relation to control: 11.9%
  Phenylalanine, variation in relation to control: 22.7%
  Phosphocholine, variation in relation to control: 14.1%
  Phosphocreatine, variation in relation to control: -16.1%
  Proline, variation in relation to control: -15.8%
  UDP-GlcNAc, variation in relation to control: -10.8%
  Valine, variation in relation to control: 15.5%
  beta-Alanine, variation in relation to control: -10.0%
  myo-Inositol, variation in relation to control: -16.9%
[3]; IC50, 24 h, aqueous extract
  2-Ketovaline, variation in relation to control: 16.5%
  2-Oxoisoleucine, variation in relation to control: 21.6%
  ATP + ADP, variation in relation to control: -23.0%
  Alanine, variation in relation to control: 17.1%
  Asparagine, variation in relation to control: 27.8%
  Aspartate, variation in relation to control: 12.1%
  Creatine, variation in relation to control: 17.6%
  Cystathionine, variation in relation to control: -28.3%
  Formate, variation in relation to control: 58.8%
  Glutamate, variation in relation to control: 0.0%
  Glutamine, variation in relation to control: 43.0%
  Glycerophosphocholine, variation in relation to control: -33.4%
  Glycine, variation in relation to control: 48.8%
  Histidine, variation in relation to control: 22.5%
  Isoleucine, variation in relation to control: 33.4%
  Lactate, variation in relation to control: -12.4%
  Leucine, variation in relation to control: 54.2%
  NAD+, variation in relation to control: 16.7%
  Panthothenic, variation in relation to control: 14.7%
  Phenylalanine, variation in relation to control: 36.2%
  Phosphocholine, variation in relation to control: 23.7%
  Phosphocreatine, variation in relation to control: -42.3%
  Proline, variation in relation to control: -38.0%
  UDP-GlcNAc, variation in relation to control: -38.7%
  Valine, variation in relation to control: 33.9%
  beta-Alanine, variation in relation to control: -72.1%
  myo-Inositol, variation in relation to control: -50.6%
[3]; IC50, 24 h, vs control
  intracellular glutamate level (in words): not altered
  intracellular phosphocholine level (in words): increased
